Laboratory results: ChEMBL document CHEMBL1833939, “Pyrrolidin-3-yl-N-methylbenzamides as potent histamine 3 receptor antagonists” (Bioorg Med Chem Lett, 2011)

Assay: in vitro
Settings: human

SMILES	half-life (liver microsomes) [min]	half-life (microsomes) [min]
Cc1nc2ccccc2n1-c1ccc(C(=O)N(C)[C@@H]2CCN(C3CCC3)C2)cc1	15	
Cc1nc2ccccc2n1-c1ccc(C(=O)N(C)[C@@H]2CCN(C3CCCC3)C2)cc1	> 30	
Cc1nc2ccccc2n1-c1ccc(C(=O)N(C)[C@@H]2CCN(C3CCCCC3)C2)cc1		> 30
